Values of other authors in patent publication US8202842B2, “Inhibition of cholera toxins by galatooligosaccharides (GOS)” (priority 2006, dated 2012).

Legend:
[1] = molecular target: cholera toxin (Vibrio cholerae serotype O1, UniProt P01556); details: rabbit, in vivo
[2] = test system: uropathogenic Escherichia coli; details: soluble, monovalent

cholera toxin, sequence (P01556 whole entry, looked up): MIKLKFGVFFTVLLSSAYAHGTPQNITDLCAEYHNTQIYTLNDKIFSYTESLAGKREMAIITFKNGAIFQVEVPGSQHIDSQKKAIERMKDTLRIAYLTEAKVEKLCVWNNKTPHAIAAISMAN

## 3-sialyllactose
[1]
  Inhibition of fluid accumulation induced by cholera toxin: inhibitor of fluid accumulation

## OC[C@H]1O[C@H](O[C@@H]2[C@H](O)[C@@H](O)[C@H](O[C@H]3[C@H](O)[C@@H](O)C(O)O[C@@H]3CO)O[C@@H]2CO)[C@H](O)[C@@H](O)[C@H]1O (some centres unmarked) [globotriose]
[2]
  Interference with attachment and colonization of uropathogenic Escherichia coli: interfere with attachment and colonization
